Assay results taken from PubChem BioAssay (NCI).
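Exposure lasted 48 hours, with cells grown in 96-well plates and compounds tested at five concentrations. Abbreviation: GI50, concentration required for 50% inhibition of growth. TGI: total growth inhibition.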

Columns and labels:
Assay in all cases: NCI anticancer screen, dose series, 48 h
[1] = system: 786-0 renal
[2] = system: CAKI-1 renal
[3] = system: DU-145 prostate
[4] = system: HCC-2998 colon
[5] = system: IGROV1 ovarian
[6] = system: M14 melanoma
[7] = system: NCI-H460 lung
[8] = system: SF-539 CNS
[9] = system: SW-620 colon
[10] = system: UACC-257 melanoma

| Structure (SMILES) | GI50 [1] [µM] | TGI [1] [µM] | GI50 [2] [µM] | TGI [2] [µM] | GI50 [3] [µM] | TGI [3] [µM] | GI50 [4] [µM] | TGI [4] [µM] | GI50 [5] [µM] | TGI [5] [µM] | GI50 [6] [µM] | TGI [6] [µM] | GI50 [7] [µM] | TGI [7] [µM] | GI50 [8] [µM] | TGI [8] [µM] | GI50 [9] [µM] | TGI [9] [µM] | GI50 [10] [µM] | TGI [10] [µM] |
| --- | --- | --- | --- | --- | --- | --- | --- | --- | --- | --- | --- | --- | --- | --- | --- | --- | --- | --- | --- | --- |
| CCCCCCNC(=O)c1nc(-c2ccccc2)oc1Cc1ccc(OP(=O)(O)O)cc1 | 17.9 | 35.4 | 15.8 | 33.6 | 10.2 | 22.3 | 18.2 | 33.4 | 15.2 | 31.2 | 18 | 35.5 | 20.2 | 43 | 16.9 | 32.2 | 16.8 | 33.4 | 17.6 | 35.6 |
| Cn1cc(C2=C(c3cn(C)c4cc(C(N)=O)ccc34)C(=O)NC2=O)c2ccccc21 | 1.81 | 13.7 | 0.831 | 10.7 | 0.987 | > 10.2 | 5.17 | > 25 | 2.48 | > 19.7 | 1.08 | > 25 | 0.854 | > 9.8 | 0.791 | 4.24 | 1.27 | > 25 | 3.66 | > 25 |
